{
  "source": "patent US9766197B2",
  "about": "“Methods for generating pH/ionic concentration gradient near electrode surfaces for modulating biomolecular interactions, and bubble detection using electrodes” (Robert Bosch GmbH, priority 2014, dated 2017)",
  "key": {"[1]": {"experiment": "Electrochemical modulation of pH at ITO working electrode monitored by GFP fluorescence intensity", "type": "physicochemical", "excerpt": "After current was turned off, the pH recovered to neutral value within 50 seconds.\nElectrode material used: The electrode material was indium tin oxide. The fluorescent protein used is GFP immobilized on a glass substrate which includes an array of electrodes. The GFP is applied as spots, each spot covers an area that overlaps with one electrode and an area that is not overlapping with an electrode.\nThe pH change at the surface of ITO working electrode is generated via current-driven oxidation of a redox active molecule, 2-methyl-1,4-dihydroquinone, in diluted phosphate buffer (pH=7.4) containing 0.1M Na2SO4. […] FIG. 10 is used as calibration curve to assess the pH values."}, "[2]": {"experiment": "Electro-oxidation of ascorbic acid at indium tin oxide electrode (cyclic voltammetry)", "type": "physicochemical", "settings": "Indium tin oxide vs Ag/AgCl reference electrode", "excerpt": "FIG. 7B: Cyclic voltammetric study of the oxidation of Ascorbic acid test in ITO electrodes.\n(§1) Electrode material used: The electrode material was indium tin oxide. This is a semiconducting electrode surface with very large potential window in an aqueous solution.\nOxidation of ascorbic acid at the electrode surfaces produced H^+ ions and changed the electrode surface pH to a more acidic state: AH2→A+2H^++2e^−, where AH2 is ascorbic acid ([…]) (as shown in FIG. 5). The electrode potential at which it oxidizes was less than 0.5V for Indium tin oxide material vs Ag/AgCl reference electrode (as shown in FIG. 7). This potential was less than the voltages needed for the oxygen evolution reaction in aqueous solution. The ascorbic acid also acted as a sacrificial species to prevent electrochemical degradation of the surface chemistry."}, "[3]": {"target": "Green Fluorescent Protein (GFP) (Aequorea victoria, UniProt P42212)", "experiment": "Fluorescence intensity of GFP after incubation with benzoquinones (protein stability)", "type": "biochemical", "settings": "0.5 mM benzoquinone, phosphate buffered saline, 30 min", "excerpt": "Para-benzoquinones and ortho-benzoquinones (compounds 2, 4, 6, and 9 in FIG. 31) are susceptible to nucleophilic attack at the double bond of the ring (positions 2, 3, 5 and 6 in structure 2 of FIG. 31, positions 3, 4, 5 and 6 in structure 4 of FIG. 31, and positions 2 and 3 in structure 6 of FIG. 31). Introducing substituents at some or all of those positions can mitigate the problem of nucleophilic attack. For example, 1,4-benzoquinone (structure 2 in FIG. 31, where R1, R2, R3 and R4 are H) undergoes Michael addition reaction with amino groups of proteins (Loomis et al., Phytochemistry, 5, 423, (1966) and U.S. Pat. No. 6,753,312 B2). […] Fluorescence intensity of Green Fluorescent Protein (GFP) was measured after incubation with three different benzoquinones in phosphate buffered saline for 30 min (concentration of benzoquinones was 0.5 mM). The difference in fluorescence intensity indicates the varied effect that the different substitutions in benzoquinones have on the stability of GFP. Fluorescence intensity of GFP is indicative of its structural integrity. Losses in fluorescence intensity usually indicate loss of its tertiary structure (protein denaturation) (Yin D. X., Zhu L., Schimke R. T. Anal. Biochem. 1996, 235:195-201)."}, "[4]": {"experiment": "Electro-reduction of benzoquinone into hydroquinone to produce OH- ions", "type": "physicochemical", "excerpt": "as §1\nReduction of benzoquinone (C6H4O2) into Hydroquinone (C6H6O2) can produce OH^− ions at −0.1V: BQ+2e^−+2H2O→HQ+2OH^− This reduction reaction increased the pH at the electrode interface."}},
  "data": [
    {"smiles": "Cc1cc(O)ccc1O", "note": "[2-methyl-1,4-dihydroquinone]", "values": [
      {"measurement": "solution pH after current-driven oxidation", "setting": "[1]; 50 microamps for 30 second, diluted phosphate buffer pH 7.4, 0.1M Na2SO4, ITO working electrode", "result": 5.5},
      {"measurement": "time for pH to recover to neutral value after current was turned off", "setting": "[1]; diluted phosphate buffer pH 7.4, 0.1M Na2SO4", "result": "≤ 50", "unit": "seconds"}
    ]},
    {"smiles": "O=C1O[C@H]([C@@H](O)CO)C(O)=C1O", "note": "[ascorbic acid]", "values": [
      {"measurement": "electrode potential at which it oxidizes", "setting": "[2]", "result": "less than 0.5 V"}
    ]},
    {"smiles": "O=C1C=CC(=O)C=C1", "note": "[unsubstituted benzoquinone, 1,4-benzoquinone]", "values": [
      {"measurement": "loss in GFP fluorescence intensity after incubation", "setting": "[3]", "result": 25, "unit": "%"},
      {"measurement": "potential of reduction producing OH- ions", "setting": "[4]", "result": "−0.1", "unit": "V"}
    ]}
  ]
}
